A value given as a limit tells only on which side of the number the result lay.

One assay addresses T1, EGFR (L858R T790M C797S) (Homo sapiens, UniProt P00533, C797S/L858R/T790M).
T1 construct: purchased SignalChem E10-122VG
The experiment in a line: Biochemical EGFR inhibition assay (Caliper mobility shift), EGFR LRTMCS. The note with it: LRTMCS (PH) IC50 (nM) @ 1 mM ATP (Num), EGFR LRTMCS mutant. As to the method: Reactions proceeded until between 10% to 20% total peptides were phosphorylated at room temperature (25° C.) and were terminated with 35 mM 2,2′,2″,2′″-(ethane-1,2-diyldinitrilo)tetraacetic acid (EDTA). Product was detected using the Caliper mobility shift detection method where the phosphorylated peptide (product) and substrate were electrophoretically separated and measured. Percent activity was plotted against log concentration of compound and points to generate an apparent IC50.

The target of assay [1] is T2, intracellular phosphorylation of EGFR in NCI-H1975 cell line that harbors the EGFR L858R T790M mutations (Homo sapiens, UniProt P00533, L858R/T790M).
T2 construct: NCI-H1975 cell line that harbors the EGFR L858R T790M mutations (ATCC, CRL-5908); host or cells: NCI-H1975
T2 sequence (P00533 25-1210 T790M/L858R): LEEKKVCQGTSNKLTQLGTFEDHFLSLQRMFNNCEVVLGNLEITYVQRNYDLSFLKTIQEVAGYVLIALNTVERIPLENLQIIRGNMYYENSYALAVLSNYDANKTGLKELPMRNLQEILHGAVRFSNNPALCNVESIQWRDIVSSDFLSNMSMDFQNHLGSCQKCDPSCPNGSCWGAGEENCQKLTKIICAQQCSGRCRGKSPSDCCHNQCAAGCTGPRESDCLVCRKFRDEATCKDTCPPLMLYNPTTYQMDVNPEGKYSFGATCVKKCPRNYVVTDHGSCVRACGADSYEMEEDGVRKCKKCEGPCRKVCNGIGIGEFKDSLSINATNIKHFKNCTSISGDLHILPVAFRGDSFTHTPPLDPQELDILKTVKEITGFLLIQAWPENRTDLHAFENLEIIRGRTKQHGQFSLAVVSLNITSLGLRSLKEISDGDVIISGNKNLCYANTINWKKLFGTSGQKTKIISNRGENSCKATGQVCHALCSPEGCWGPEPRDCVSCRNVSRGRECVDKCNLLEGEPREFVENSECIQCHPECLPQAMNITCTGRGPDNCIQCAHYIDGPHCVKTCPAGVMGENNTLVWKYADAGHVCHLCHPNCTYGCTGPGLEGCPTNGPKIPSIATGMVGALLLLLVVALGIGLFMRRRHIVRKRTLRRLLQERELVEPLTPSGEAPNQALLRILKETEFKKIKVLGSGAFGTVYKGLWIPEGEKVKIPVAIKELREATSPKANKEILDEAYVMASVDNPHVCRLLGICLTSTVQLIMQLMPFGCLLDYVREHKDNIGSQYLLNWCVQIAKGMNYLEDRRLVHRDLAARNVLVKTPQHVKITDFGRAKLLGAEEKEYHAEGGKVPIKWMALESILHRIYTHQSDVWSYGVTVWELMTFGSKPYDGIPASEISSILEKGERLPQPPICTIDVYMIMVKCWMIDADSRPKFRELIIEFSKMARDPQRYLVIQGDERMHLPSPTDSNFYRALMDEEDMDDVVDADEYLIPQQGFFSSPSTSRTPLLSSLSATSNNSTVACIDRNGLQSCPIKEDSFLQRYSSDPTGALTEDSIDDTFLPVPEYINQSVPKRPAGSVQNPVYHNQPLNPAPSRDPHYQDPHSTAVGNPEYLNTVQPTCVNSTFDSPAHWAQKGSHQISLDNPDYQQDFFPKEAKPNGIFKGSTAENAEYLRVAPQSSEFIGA
The experiment in a line: NCI-H1975 pEGFR AlphaLISA assay. In kind it is cell-based. Conditions: NCI-H1975 cells (EGFR L858R T790M), p-EGFR (Tyr1068), 4-5 hours incubation; read-out: Ext pEGFR H1975 GMean IC50 (nM) Protocol: @Pharmaron AlphaLISA (Num). As to the method: On the next day, the test compounds and DMSO control were added into H1975 cell plate followed by incubation at 37C/5% CO2 for 4-5 hours. […] Then 5 μL of a donor bead mix was added to each well followed by overnight incubation at room temperature in dark. On the next day, the plate was read at a compatible plate reader to obtain pEGFR signal. Percent of pEGFR inhibition was plotted against log concentration of compounds to generate IC50 values.
(In Alpha technology, singlet oxygen from a donor bead excites a nearby acceptor bead.)

T1 sequence (P00533 25-1210 T790M/C797S/L858R): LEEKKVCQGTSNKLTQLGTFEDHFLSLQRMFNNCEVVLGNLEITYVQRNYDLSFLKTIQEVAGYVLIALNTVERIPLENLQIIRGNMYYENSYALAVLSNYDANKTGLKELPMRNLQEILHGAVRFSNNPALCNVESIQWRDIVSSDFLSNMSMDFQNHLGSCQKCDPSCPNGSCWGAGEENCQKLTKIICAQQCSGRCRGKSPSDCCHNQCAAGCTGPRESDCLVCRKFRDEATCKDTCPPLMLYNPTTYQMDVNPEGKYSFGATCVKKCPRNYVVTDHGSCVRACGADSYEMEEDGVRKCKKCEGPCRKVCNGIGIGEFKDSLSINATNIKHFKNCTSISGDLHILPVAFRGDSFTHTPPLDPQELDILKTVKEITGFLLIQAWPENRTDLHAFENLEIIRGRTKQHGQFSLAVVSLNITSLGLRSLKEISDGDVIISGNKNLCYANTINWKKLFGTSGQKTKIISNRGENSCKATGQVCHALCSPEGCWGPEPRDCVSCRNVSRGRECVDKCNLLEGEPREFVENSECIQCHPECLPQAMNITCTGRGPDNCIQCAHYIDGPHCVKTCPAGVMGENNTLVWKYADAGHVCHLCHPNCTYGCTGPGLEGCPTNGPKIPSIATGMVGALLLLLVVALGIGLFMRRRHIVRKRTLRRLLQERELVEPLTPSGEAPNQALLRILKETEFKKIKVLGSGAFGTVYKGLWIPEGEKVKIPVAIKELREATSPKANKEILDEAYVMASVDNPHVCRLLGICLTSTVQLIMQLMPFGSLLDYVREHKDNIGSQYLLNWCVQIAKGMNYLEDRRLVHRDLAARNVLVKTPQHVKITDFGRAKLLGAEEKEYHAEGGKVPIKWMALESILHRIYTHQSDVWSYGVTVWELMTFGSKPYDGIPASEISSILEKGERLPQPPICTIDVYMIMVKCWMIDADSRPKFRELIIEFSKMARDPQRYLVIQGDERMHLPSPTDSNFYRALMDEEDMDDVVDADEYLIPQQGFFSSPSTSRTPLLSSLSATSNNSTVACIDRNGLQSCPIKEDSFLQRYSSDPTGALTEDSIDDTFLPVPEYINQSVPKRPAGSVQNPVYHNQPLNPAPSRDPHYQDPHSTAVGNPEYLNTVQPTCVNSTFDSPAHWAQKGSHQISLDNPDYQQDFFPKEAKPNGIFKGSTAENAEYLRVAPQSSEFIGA

The IC50 is the concentration at which inhibition is half-maximal. For the compound `CC(C)c1cnc(N2C[C@@H](F)[C@H](F)C2)c2cnc(Nc3ccnc(N4CC[C@@H](O)[C@@](C)(F)C4)n3)cc12` (single isomer, unassigned) [Example 60, (3S,4R)-1-(4-((8-((3R,4R)-3,4-difluoropyrrolidin-1-yl)-5-isopropyl-2,7-naphthyridin-3-yl)amino)pyrimidin-2-yl)-3-fluoro-3-methylpiperidin-4-ol or (3S,4R)-1-(4-((8-((3S,4S)-3,4-difluoropyrrolidin-1-yl)-5-isopropyl-2,7-naphthyridin-3-yl)amino)pyrimidin-2-yl)-3-fluoro-3-methylpiperidin-4-ol], the values for the IC50 (on EGFR (L858R T790M C797S); in assay [1]) were below 15 nM and 10 to 20 nM, respectively.
The like results for `CC(C)c1cnc(N2CC[C@H]2[C@@H](C)O)c2cnc(Nc3ccnc(N4CC[C@@H](O)[C@@](C)(F)C4)n3)cc12` (single isomer, unassigned) [Example 65, (3S,4R)-3-fluoro-1-(4-((8-((S)-2-((R)-1-hydroxyethyl)azetidin-1-yl)-5-isopropyl-2,7-naphthyridin-3-yl)amino)pyrimidin-2-yl)-3-methylpiperidin-4-ol or (3S,4R)-3-fluoro-1-(4-((8-((S)-2-((S)-1-hydroxyethyl)azetidin-1-yl)-5-isopropyl-2,7-naphthyridin-3-yl)amino)pyrimidin-2-yl)-3-methylpiperidin-4-ol] were, in that order, below 15 nM and 20 to 30 nM.
The like results for `CO[C@@H]1CCN(c2nccc(Nc3cc4c(C(C)C)cnc(N5CC(F)C5)c4cn3)n2)C[C@@H]1O` (single isomer, unassigned) [Example 118, (3S,4R)-1-(4-((8-(3-fluoroazetidin-1-yl)-5-isopropyl-2,7-naphthyridin-3-yl)amino)pyrimidin-2-yl)-4-methoxypiperidin-3-ol or (3R,4S)-1-(4-((8-(3-fluoroazetidin-1-yl)-5-isopropyl-2,7-naphthyridin-3-yl)amino)pyrimidin-2-yl)-4-methoxypiperidin-3-ol] were, in that order, 20 to 30 nM and above 50 nM.
The like results for `CO[C@@H]1CCN(c2nccc(Nc3cc4c(C(C)C)ncc(N5C[C@H](O)[C@H]5C)c4cn3)n2)C[C@@H]1O` (single isomer, unassigned) [Example 119, (3S,4R)-1-(4-((8-((2R,3S)-3-hydroxy-2-methylazetidin-1-yl)-5-isopropyl-2,6-naphthyridin-3-yl)amino)pyrimidin-2-yl)-4-methoxypiperidin-3-ol or (3R,4S)-1-(4-((8-((2R,3S)-3-hydroxy-2-methylazetidin-1-yl)-5-isopropyl-2,6-naphthyridin-3-yl)amino)pyrimidin-2-yl)-4-methoxypiperidin-3-ol] were, in that order, 20 to 30 nM and above 50 nM.
Turning to `CO[C@@H]1CCN(c2nccc(Nc3cc4c(C(C)C)cnc(N5CC(C(=O)N(C)C)C5)c4cn3)n2)C[C@@H]1O` (single isomer, unassigned) [Example 120, 1-(6-((2-((3S,4R)-3-hydroxy-4-methoxypiperidin-1-yl)pyrimidin-4-yl)amino)-4-isopropyl-2,7-naphthyridin-1-yl)-N,N-dimethylazetidine-3-carboxamide or 1-(6-((2-((3R,4S)-3-hydroxy-4-methoxypiperidin-1-yl)pyrimidin-4-yl)amino)-4-isopropyl-2,7-naphthyridin-1-yl)-N,N-dimethylazetidine-3-carboxamide], the IC50 at EGFR (L858R T790M C797S) lay within 20 to 30 nM; in assay [1] it was 30 to 50 nM.
For the compound `CO[C@@H]1CCN(c2nccc(Nc3cc4c(C(C)C)ncc(N5CC(C(=O)N(C)C)C5)c4cn3)n2)C[C@@H]1O` (single isomer, unassigned) [Example 121, 1-(7-((2-((3S,4R)-3-hydroxy-4-methoxypiperidin-1-yl)pyrimidin-4-yl)amino)-1-isopropyl-2,6-naphthyridin-4-yl)-N,N-dimethylazetidine-3-carboxamide or 1-(7-((2-((3R,4S)-3-hydroxy-4-methoxypiperidin-1-yl)pyrimidin-4-yl)amino)-1-isopropyl-2,6-naphthyridin-4-yl)-N,N-dimethylazetidine-3-carboxamide], the figures for the half-inhibitory concentration (IC50) (on EGFR (L858R T790M C797S); in assay [1]) were 30 to 100 nM and above 50 nM, respectively.
The like results for `CO[C@@H]1CCN(c2nccc(Nc3cc4c(C(C)C)cnc(N5C[C@H](O)[C@H]5C)c4cn3)n2)C[C@@H]1O` (single isomer, unassigned) [Example 122, (3S,4R)-1-(4-((8-((2R,3S)-3-hydroxy-2-methylazetidin-1-yl)-5-isopropyl-2,7-naphthyridin-3-yl)amino)pyrimidin-2-yl)-4-methoxypiperidin-3-ol or (3R,4S)-1-(4-((8-((2R,3S)-3-hydroxy-2-methylazetidin-1-yl)-5-isopropyl-2,7-naphthyridin-3-yl)amino)pyrimidin-2-yl)-4-methoxypiperidin-3-ol] were, in that order, below 15 nM and 10 to 20 nM.
Consider `CO[C@@H]1CCN(c2nccc(Nc3cc4c(C(C)C)ccc(N5C[C@H](O)[C@H]5C)c4cn3)n2)C[C@@H]1O` (single isomer, unassigned) [Example 123, (3S,4R)-1-(4-((8-((2R,3S)-3-hydroxy-2-methylazetidin-1-yl)-5-isopropylisoquinolin-3-yl)amino)pyrimidin-2-yl)-4-methoxypiperidin-3-ol-ol or (3R,4S)-1-(4-((8-((2R,3S)-3-hydroxy-2-methylazetidin-1-yl)-5-isopropylisoquinolin-3-yl)amino)pyrimidin-2-yl)-4-methoxypiperidin-3-ol], for which the figures for the IC50 (on EGFR (L858R T790M C797S); in assay [1]) were 15 to 20 nM and above 50 nM, respectively.
The like results for `CO[C@@H]1CCN(c2nccc(Nc3cc4c(C(C)C)cnc(N5CC6(CCS6(=O)=O)C5)c4cn3)n2)C[C@@H]1O` (single isomer, unassigned) [Example 124, 6-(6-((2-((3S,4R)-3-hydroxy-4-methoxypiperidin-1-yl)pyrimidin-4-yl)amino)-4-isopropyl-2,7-naphthyridin-1-yl)-1-thia-6-azaspiro[3.3]heptane 1,1-dioxide or 6-(6-((2-((3R,4S)-3-hydroxy-4-methoxypiperidin-1-yl)pyrimidin-4-yl)amino)-4-isopropyl-2,7-naphthyridin-1-yl)-1-thia-6-azaspiro[3.3]heptane 1,1-dioxide] were, in that order, below 15 nM and 30 to 50 nM.
The like results for `CO[C@@H]1CCN(c2nccc(Nc3cc4c(C(C)C)ccc(N5CC6(CCS6(=O)=O)C5)c4cn3)n2)C[C@@H]1O` (single isomer, unassigned) [Example 125, 6-(3-((2-((3S,4R)-3-hydroxy-4-methoxypiperidin-1-yl)pyrimidin-4-yl)amino)-5-isopropylisoquinolin-8-yl)-1-thia-6-azaspiro[3.3]heptane 1,1-dioxide or 6-(3-((2-((3R,4S)-3-hydroxy-4-methoxypiperidin-1-yl)pyrimidin-4-yl)amino)-5-isopropylisoquinolin-8-yl)-1-thia-6-azaspiro[3.3]heptane 1,1-dioxide] were, in that order, below 15 nM and 30 to 50 nM.
For `CO[C@@H]1CCN(c2cc(Nc3cc4c(C(C)C)ccc(N5CC(n6ccnn6)C5)c4cn3)ccn2)C[C@@H]1O` (single isomer, unassigned) [Example 126, (3S,4R)-1-(4-((8-(3-(1H-1,2,3-triazol-1-yl)azetidin-1-yl)-5-isopropylisoquinolin-3-yl)amino)pyridin-2-yl)-4-methoxypiperidin-3-ol or (3R,4S)-1-(4-((8-(3-(1H-1,2,3-triazol-1-yl)azetidin-1-yl)-5-isopropylisoquinolin-3-yl)amino)pyridin-2-yl)-4-methoxypiperidin-3-ol], the figures for the IC50 (at EGFR (L858R T790M C797S); in assay [1]) were below 15 nM and 10 to 20 nM, respectively.
Turning to `CO[C@H]1CCN(c2cc(Nc3cc4c(C(C)C)ccc(N5CC(n6ccnn6)C5)c4cn3)ccn2)C[C@@H]1O` (single isomer, unassigned) [Example 127, (3S,4S)-1-(4-((8-(3-(1H-1,2,3-triazol-1-yl)azetidin-1-yl)-5-isopropylisoquinolin-3-yl)amino)pyridin-2-yl)-4-methoxypiperidin-3-ol or (3R,4R)-1-(4-((8-(3-(1H-1,2,3-triazol-1-yl)azetidin-1-yl)-5-isopropylisoquinolin-3-yl)amino)pyridin-2-yl)-4-methoxypiperidin-3-ol], the IC50 at EGFR (L858R T790M C797S) is 15 to 20 nM; in assay [1], 10 to 20 nM.
The corresponding values for `CC(C)c1cnc(N2CC3(CCS3(=O)=O)C2)c2cnc(Nc3ccnc(N4C[C@@H](F)[C@@H](O)C(C)(C)C4)n3)cc12` (single isomer, unassigned) [Example 132, 6-(6-((2-((4S,5R)-5-fluoro-4-hydroxy-3,3-dimethylpiperidin-1-yl)pyrimidin-4-yl)amino)-4-isopropyl-2,7-naphthyridin-1-yl)-1-thia-6-azaspiro[3.3]heptane 1,1-dioxide or 6-(6-((2-((4R,5S)-5-fluoro-4-hydroxy-3,3-dimethylpiperidin-1-yl)pyrimidin-4-yl)amino)-4-isopropyl-2,7-naphthyridin-1-yl)-1-thia-6-azaspiro[3.3]heptane 1,1-dioxide] are below 15 nM and 10 to 20 nM.
